The subject of assay [1] is maximal electroshock-induced seizures (MES). As to the kind of experiment: maximum electroshock seizure test (MES). Type of assay: in vivo. The settings on record: Mus musculus, iv; mice, injected i.v. 15 minutes before the test procedure; read-out: ED50 (the dose protecting 50% of animals), protection against MES. The text has this: The compounds of the present invention may be tested for in vivo anticonvulsant activity after i.v., p.o. or i.p. injection using a number of anticonvulsant tests in mice, including the maximum electroshock seizure test (MES). Maximum electroshock seizures were induced in male NSA mice weighing between 15-20 g and male Sprague-Dawley rats weighing between 200-225 g by application of current (50 mA, 60 pulses/sec, 0.8 msec pulse width, 1 sec duration, D.C., mice; 99 mA. 125 pulses/sec, 0.8 msec pulse width, 2 sec duration, D.C., rats) using a Ugo Basile FCT device (Model 7801). Mice were restrained by gripping the loose skin on their dorsal surface and saline-coated corneal electrodes were held lightly against the two corneae. Rats were allowed free movement on the bench top and ear-clip electrodes were used. […] A tonic seizure was defined as a hindlimb extension in excess of 90 degrees from the plane of the body. Results were treated in a quantal manner. The ability of N^3-[4-(4-fluorophenoxy)benzyl]pyridine-2,3-diamine to block maximal electroshock-iniduced seizures (MES) was determined according to the method above. N^3-[4-(4-Fluorophenoxy)benzyl]pyridine-2,3-diamine was injected i.v. to mice 15 minutes before the test procedure.

For assay [2], the target named is T1, hSkM1 isoform of Na+ channels (Homo sapiens, UniProt P35499).
T1 construct: expressed in transfected cells
As to the kind of experiment: Electrophysiological assay, whole-cell patch-clamp recordings of voltage-sensitive Na+ currents. Type of assay: cell-based. The settings on record: HEK-293 cells stably expressing hSkM1. The protocol:
Cell preparalion. HEK-293 cells stably expressing the hSkM1 isoform of Na^+ channels (generous gift from Dr. A. L. George, Vanderbilt University Medical School) were cultured using standard techniques, as described previously (Verdoorn, T. A, et al., Neuron 4:919-928 (1990)). For electrophysiology, cells were plated onto 35 mm Petri dishes (pre-coated with poly-D-lysine) at a density of 1:40 on the day of re-seeding from confluent cultures. Our experience has been that cells are suitable for recordings for 2-3 days after plating.
Patch-clamp recordings of voltage-sensitive Na^+ currenis. Whole-cell voltage-clamp recordings were made using conventional patch-clamp techniques (Hamill et al, Pfluegers Arch. 391:85-100 (1981)) with an Axopatch 200A amplifier (Axon Instruments, Foster City, Calif.). Recordings were made within 2-3 hours after neuron dissociation. The recording chamber was continuously superfused with the external solution (150 mM NaCl, 5.4 mM KCl, 1.8 mM CaCl2, 1 mM MgCl2, 10 mM HEPES, 10 mM glucose, pH 7.4 (NaOH)) at a speed of about 1 mL/min. Recording pipettes were pulled from thick-walled capillaries (WPI, Sarasota, Fla.) and fire-polished. The pipette resistances ranged from 1 to 3 MΩ when the pipettes were filled with internal solution containing (in mM): 110 CsF, 10 NaCl, 5 MgCl2, 11 EGTA, 10 HEPES, pH adjusted to 7.4 with CsOH. Osmolality was set with a difference of 15-20 mmol/kg between external and internal solutions (lower inside the cell). Drugs and intervening wash-outs were applied through a linear array of flow pipes (Drummond Microcaps, 2 μL, 64-mm length). […] Currents were recorded at room temperature (22-25° C.), filtered at 5 kHz with an active 8-pole Bessel filter (Frequency Devices, Haverhill, Mass.), digitized at 10-50 μs intervals, and stored using Digidata 1200 analog/digital interface with Pclamp6/Clampex software (Axon Instruments). […] The inhibitory potency of drugs was assessed by measuring reductions in the peak amplitude of Na^+ currents induced by increasing concentrations of compounds tested. […]
On the technique in general: In patch-clamp work, channel activity is measured electrically.

For orientation: ED50 means the dose that gives a 50% effect, or the effect in half of the subjects.

T1 sequence (P35499 whole entry, canonical isoform): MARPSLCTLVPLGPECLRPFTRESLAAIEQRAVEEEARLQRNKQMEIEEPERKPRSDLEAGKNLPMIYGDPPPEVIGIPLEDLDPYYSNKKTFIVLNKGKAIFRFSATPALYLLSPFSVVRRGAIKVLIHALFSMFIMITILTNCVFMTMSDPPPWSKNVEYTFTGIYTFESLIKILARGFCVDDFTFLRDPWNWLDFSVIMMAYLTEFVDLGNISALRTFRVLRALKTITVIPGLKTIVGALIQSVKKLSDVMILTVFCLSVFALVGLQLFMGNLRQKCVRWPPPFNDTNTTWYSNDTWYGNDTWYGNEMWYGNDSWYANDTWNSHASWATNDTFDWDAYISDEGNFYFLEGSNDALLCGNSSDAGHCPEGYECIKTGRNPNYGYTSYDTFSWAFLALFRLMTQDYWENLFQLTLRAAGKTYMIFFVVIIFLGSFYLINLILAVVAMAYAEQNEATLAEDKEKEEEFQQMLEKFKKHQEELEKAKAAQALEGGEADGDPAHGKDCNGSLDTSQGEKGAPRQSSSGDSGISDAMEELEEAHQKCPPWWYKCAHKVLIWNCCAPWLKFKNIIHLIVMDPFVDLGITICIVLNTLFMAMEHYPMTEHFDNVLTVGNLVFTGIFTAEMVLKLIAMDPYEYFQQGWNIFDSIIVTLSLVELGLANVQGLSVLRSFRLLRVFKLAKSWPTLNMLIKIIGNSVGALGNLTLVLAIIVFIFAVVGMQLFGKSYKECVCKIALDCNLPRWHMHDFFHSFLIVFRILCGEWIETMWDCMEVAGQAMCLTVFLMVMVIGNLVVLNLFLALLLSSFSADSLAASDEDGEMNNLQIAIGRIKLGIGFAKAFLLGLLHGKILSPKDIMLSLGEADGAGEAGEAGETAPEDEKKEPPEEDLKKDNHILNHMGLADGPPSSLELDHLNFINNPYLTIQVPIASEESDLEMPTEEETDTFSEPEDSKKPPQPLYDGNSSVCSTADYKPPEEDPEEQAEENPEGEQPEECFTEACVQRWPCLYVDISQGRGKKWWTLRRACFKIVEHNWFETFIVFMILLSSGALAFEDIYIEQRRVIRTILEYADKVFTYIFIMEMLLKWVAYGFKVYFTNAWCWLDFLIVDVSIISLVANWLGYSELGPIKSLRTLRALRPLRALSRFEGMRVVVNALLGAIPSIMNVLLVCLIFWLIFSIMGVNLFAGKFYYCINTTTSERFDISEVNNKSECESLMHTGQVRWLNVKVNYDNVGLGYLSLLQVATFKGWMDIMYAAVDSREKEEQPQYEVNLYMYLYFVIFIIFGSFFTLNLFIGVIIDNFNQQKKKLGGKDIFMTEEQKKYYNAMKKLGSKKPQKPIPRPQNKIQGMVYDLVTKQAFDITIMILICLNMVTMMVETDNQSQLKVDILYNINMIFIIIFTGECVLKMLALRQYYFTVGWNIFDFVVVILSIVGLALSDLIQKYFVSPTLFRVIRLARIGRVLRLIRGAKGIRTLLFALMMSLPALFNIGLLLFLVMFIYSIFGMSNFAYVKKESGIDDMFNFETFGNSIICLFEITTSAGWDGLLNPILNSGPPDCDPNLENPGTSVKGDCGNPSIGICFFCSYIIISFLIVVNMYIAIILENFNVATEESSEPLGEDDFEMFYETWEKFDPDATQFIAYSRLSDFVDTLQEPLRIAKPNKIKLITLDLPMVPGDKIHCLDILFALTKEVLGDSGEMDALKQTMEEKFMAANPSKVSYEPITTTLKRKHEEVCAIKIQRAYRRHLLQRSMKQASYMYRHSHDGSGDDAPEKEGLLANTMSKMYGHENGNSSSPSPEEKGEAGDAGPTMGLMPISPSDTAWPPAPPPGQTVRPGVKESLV

On to `Nc1ncccc1NCc1ccc(OCc2cccc(F)c2)cc1` [N^3-[4-(3-Fluorobenzyloxy)benzyl]pyridine-2,3-diamine], for which the ED50 in assay [1] is 2.9 mg/kg.
Consider `Nc1ncccc1NCc1ccc(Oc2ccc(F)cc2)cc1` [N^3-[4-(4-Fluorophenoxy)benzyl]pyridine-2,3-diamine], for which, in assay [2], the “inhibition of voltage-gated sodium currents” value is listed as “dose-dependent inhibition”. The Ki in assay [2] (inactivated state, read-out: apparent antagonist dissociation constant Ki (the concentration of a compound that produces half maximal inhibition) for inactivated sodium channels) turned out to be 60 nM. The “potency towards Na+ channels in their resting states” value in assay [2] (resting state) was “weak potency”.
